Laboratory results taken from the supplement of paper PMC10307832.

Columns and labels:
Assay in all cases: relative viability (nuclei count vs DMSO), 5 days (fraction); higher = more cells survive
Daporinad + Pemetrexed = compound: O=C(/C=C/c1cccnc1)NCCCCC1CCN(C(=O)c2ccccc2)CC1 [Daporinad] + Nc1nc2[nH]cc(CCc3ccc(C(=O)N[C@@H](CCC(=O)O)C(=O)O)cc3)c2c(=O)[nH]1 [Pemetrexed] (partner 0.2 µM)
In short: (§1)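 Relative viability equals treated-well nuclei counts divided by vehicle-well nuclei counts. Counts came from 4× images of lung cancer cell lines grown in 1536-well plates for 5 days after pin-tool dosing on the day after seeding. Dosing used one drug alone or a fixed anchor-drug dose plus five library-drug doses (not always all listed) in √10 steps, and values are medians of duplicate plates.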

R406 + OSI-027 = compound: COc1cc(Nc2ncc(F)c(Nc3ccc4c(n3)NC(=O)C(C)(C)O4)n2)cc(OC)c1OC [R406] + COc1cccc2cc(-c3nc([C@H]4CC[C@H](C(=O)O)CC4)n4ncnc(N)c34)[nH]c12 [OSI-027] (partner 0.5 µM)
In short: as §1

Daporinad = compound: O=C(/C=C/c1cccnc1)NCCCCC1CCN(C(=O)c2ccccc2)CC1 [Daporinad]
In short: (§2)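 Viability was defined as treated-well nuclei divided by vehicle-well nuclei, with the median taken over replicate plates. Cells from lung cancer lines sat overnight at 37 °C in 1536-well plates, received five √10-spaced library-drug doses by pinning on vehicle-anchored plates, and grew 5 days without medium change before one-step fixation, permeabilisation and Hoechst staining, 4× imaging and MetaXpress nuclear counts. Only plates with control CV under 25% and at least one doubling were kept.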

R406 = compound: COc1cc(Nc2ncc(F)c(Nc3ccc4c(n3)NC(=O)C(C)(C)O4)n2)cc(OC)c1OC [R406]
In short: as §2

| Cell Line | relative viability (Daporinad + Pemetrexed; first compound 0.0005 µM) | relative viability (Daporinad + Pemetrexed; first compound 0.001581 µM) | relative viability (Daporinad + Pemetrexed; first compound 0.005 µM) | relative viability (Daporinad + Pemetrexed; first compound 0.01581 µM) | relative viability (R406 + OSI-027; first compound 0.08 µM) | relative viability (R406 + OSI-027; first compound 0.253 µM) | relative viability (R406 + OSI-027; first compound 0.8 µM) | relative viability (R406 + OSI-027; first compound 2.53 µM) | relative viability (R406 + OSI-027; first compound 8 µM) | relative viability (Daporinad; 0.0005 µM) | relative viability (Daporinad; 0.001581 µM) | relative viability (Daporinad; 0.005 µM) | relative viability (Daporinad; 0.01581 µM) | relative viability (R406; 0.08 µM) | relative viability (R406; 0.253 µM) | relative viability (R406; 0.8 µM) | relative viability (R406; 2.53 µM) | relative viability (R406; 8 µM) |
| --- | --- | --- | --- | --- | --- | --- | --- | --- | --- | --- | --- | --- | --- | --- | --- | --- | --- | --- |
| SK-MES-1 | 1.04 | 0.816 | 0.955 | 0.64 | 0.588 | 0.649 | 0.714 | 0.341 | 0.13 | 0.978 | 1.05 | 1.12 | 1.03 | 0.989 | 1.05 | 1.06 | 0.648 | 0.322 |
| SW 900 | 0.486 |  | 0.506 | 0.496 | 0.649 | 0.874 | 0.75 | 0.113 | 0.247 | 0.748 | 0.733 | 0.864 | 0.592 | 0.798 | 1.03 | 1.26 | 0.166 | 0.293 |
| SW 1573 | 0.798 | 0.74 | 0.7 | 0.461 | 0.603 | 0.783 | 0.869 | 0.493 | 0.224 | 1.02 | 1.15 | 0.929 | 0.678 | 1.02 | 1.11 | 1.11 | 0.803 | 0.543 |
